Target: T1, human capsaicin receptor (Homo sapiens, UniProt Q8NER1)
T1 construct: pBK-CMV expression construct encoding the full length human capsaicin receptor; expressed in transfected cells
Test: Calcium mobilization assay, determination of antagonist activity (Example 6)
Format: cell-based
Details: 50% decrease in fluorescence response of cells expressing human capsaicin receptor exposed to capsaicin
How it was run: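 HEK293 cells stably expressing full-length human capsaicin receptor, Fluo-3 AM loaded, preincubated with compound 0.5–6 h at room temperature in KRH buffer pH 7.4. Challenged with capsaicin at its EC50; FLIPR fluorescence read. IC50 is concentration halving the capsaicin-induced calcium response.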

T1 sequence (Q8NER1 whole entry): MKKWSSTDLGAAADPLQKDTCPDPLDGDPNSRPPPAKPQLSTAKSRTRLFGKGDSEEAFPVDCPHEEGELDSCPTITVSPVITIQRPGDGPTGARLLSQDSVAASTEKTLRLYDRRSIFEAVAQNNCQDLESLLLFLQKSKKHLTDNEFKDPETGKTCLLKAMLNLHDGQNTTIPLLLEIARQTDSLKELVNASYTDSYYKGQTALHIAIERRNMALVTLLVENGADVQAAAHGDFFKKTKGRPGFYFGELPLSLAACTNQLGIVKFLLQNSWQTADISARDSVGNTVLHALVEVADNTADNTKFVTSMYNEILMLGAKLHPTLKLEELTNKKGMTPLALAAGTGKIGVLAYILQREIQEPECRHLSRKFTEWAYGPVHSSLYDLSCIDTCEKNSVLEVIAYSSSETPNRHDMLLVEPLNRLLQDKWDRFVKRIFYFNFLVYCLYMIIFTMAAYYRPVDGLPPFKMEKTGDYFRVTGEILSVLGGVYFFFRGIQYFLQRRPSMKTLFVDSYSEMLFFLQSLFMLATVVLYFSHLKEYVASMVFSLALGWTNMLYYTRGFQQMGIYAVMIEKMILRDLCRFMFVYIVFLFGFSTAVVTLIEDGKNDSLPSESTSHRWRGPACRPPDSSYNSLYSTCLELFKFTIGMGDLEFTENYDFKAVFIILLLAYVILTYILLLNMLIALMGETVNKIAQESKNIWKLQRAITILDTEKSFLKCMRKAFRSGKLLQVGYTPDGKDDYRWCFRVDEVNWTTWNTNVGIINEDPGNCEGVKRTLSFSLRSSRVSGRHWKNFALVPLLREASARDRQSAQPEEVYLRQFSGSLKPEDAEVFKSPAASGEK

| IC50 [nM] | SMILES |
| --- | --- |
| ≤ 1000 | CCN(c1nc(Nc2cccc(F)c2)nc(N2CCN(c3ncccc3Cl)CC2)n1)C(C)C [Compound 80, 6-[4-(3-Chloro-pyridin-2-yl)-piperazin-1-yl]-N-ethyl-N′-(3-fluoro-phenyl)-N-isopropyl-[1,3,5]triazine-2,4-diamine] |
| ≤ 1000 | C[C@H]1CN(c2ncccc2Cl)CCN1c1nc(Nc2ccc(C(F)(F)F)cc2)nc(N(C)C)n1 [Compound 53, 6-[4-(3-Chloro-pyridin-2-yl)-2-methyl-piperazin-1-yl]-N,N-dimethyl-N′-(4-trifluoromethyl-phenyl)-[1,3,5]triazine-2,4-diamine (S)] |
| ≤ 1000 | C[C@@H]1CN(c2ncccc2Cl)CCN1c1nc(Nc2ccc(C(C)(C)C)cc2)nc(OCc2ccccc2C(F)(F)F)n1 [Compound 5, (4-tert-Butyl-phenyl)-[4-[4-(3-chloro-pyridin-2-yl)-2-methyl-piperazin-1-yl]-6-(2-trifluoromethyl-benzyloxy)-[1,3,5]triazin-2-yl]-amine (R)] |
| ≤ 1000 | CC(C)N(C)c1nc(Nc2cccc(F)c2)nc(N2CCN(c3ncccc3Cl)CC2)n1 [Compound 79, 6-[4-(3-Chloro-pyridin-2-yl)-piperazin-1-yl]-N-(3-fluoro-phenyl)-N′-isopropyl-N′-methyl-[1,3,5]triazine-2,4-diamine] |
| ≤ 1000 | FC(F)(F)c1cccnc1N1CCN(c2nc(Nc3cccc(Cl)c3)nc(N3CCOCC3)n2)CC1 [Compound 67, (3-Chloro-phenyl)-{4-morpholin-4-yl-6-[4-(3-trifluoromethyl-pyridin-2-yl)-piperazin-1-yl]-[1,3,5]triazin-2-yl}-amine] |
| ≤ 1000 | Cc1ccc(Nc2cc(N3CCOCC3)nc(N3CCN(c4ncccc4C(F)(F)F)CC3)n2)cc1 [Compound 106, {6-Morpholin-4-yl-2-[4-(3-trifluoromethyl-pyridin-2-yl)-piperazin-1-yl]-pyrimidin-4-yl}-p-tolyl-amine] |
| ≤ 1000 | FC(F)(F)c1ccc(Nc2nc(N3CCOCC3)nc(N3CCN(c4ncccc4Cl)CC3)n2)cc1 [Compound 96, {4-[4-(3-Chloro-pyridin-2-yl)-piperazin-1-yl]-6-morpholin-4-yl-[1,3,5]triazin-2-yl}-(4-trifluoromethyl-phenyl)-amine] |
| ≤ 1000 | Fc1cccc(Nc2nc(N3CCOCC3)nc(N3CCN(c4ncccc4C(F)(F)F)CC3)n2)c1 [Compound 58, (3-Fluoro-phenyl)-{4-morpholin-4-yl-6-[4-(3-trifluoromethyl-pyridin-2-yl)-piperazin-1-yl]-[1,3,5]triazin-2-yl}-amine] |
| ≤ 1000 | C[C@@H]1CN(c2ncccc2C(F)(F)F)CCN1c1nc(Nc2ccc(C(C)(C)C)cc2)nc(OCc2ccccc2C(F)(F)F)n1 [Compound 6, (4-tert-Butyl-phenyl)-[4-[2-methyl-4-(3-trifluoromethyl-pyridin-2-yl)-piperazin-1-yl]-6-(2-trifluoromethyl-benzyloxy)-[1,3,5]triazin-2-yl]-amine (R)] |
| ≤ 1000 | CCN(CC)c1nc(Nc2ccc(F)c(F)c2)nc(N2CCN(c3ccccn3)CC2)n1 [Compound 95, N-(3,4-Difluoro-phenyl)-N′,N′-diethyl-6-(4-pyridin-2-yl-piperazin-1-yl)-[1,3,5]triazine-2,4-diamine] |
| ≤ 1000 | C[C@@H]1CN(c2ncccc2F)CCN1c1nc(Nc2ccc(C(C)(C)C)cc2)nc(OCc2ccccc2C(F)(F)F)n1 [Compound 7, (4-tert-Butyl-phenyl)-[4-[4-(3-fluoro-pyridin-2-yl)-2-methyl-piperazin-1-yl]-6-(2-trifluoromethyl-benzyloxy)-[1,3,5]triazin-2-yl]-amine (R)] |
| ≤ 1000 | CC(C)CNc1nc(Nc2ccc(C(F)(F)F)cc2)nc(N2CCN(c3ncccc3Cl)C[C@H]2C)n1 [Compound 40, 6-[4-(3-Chloro-pyridin-2-yl)-2-methyl-piperazin-1-yl]-N-isobutyl-N′-(4-trifluoromethyl-phenyl)-[1,3,5]triazine-2,4-diamine (R)] |
| ≤ 1000 | C[C@@H]1CN(c2ncccc2C(F)(F)F)CCN1c1nc(Cl)nc(Nc2ccc(C(C)(C)C)cc2)n1 [Compound 3, (4-tert-Butyl-phenyl)-{4-chloro-6-[2-methyl-4-(3-trifluoromethyl-pyridin-2-yl)-piperazin-1-yl]-[1,3,5]triazin-2-yl}-amine (R)] |
| ≤ 1000 | CN(C)c1nc(Nc2ccc(C(F)(F)F)cc2)nc(N2CCN(c3ccccn3)CC2)n1 [Compound 43, N,N-Dimethyl-6-(4-pyridin-2-yl-piperazin-1-yl)-N′-(4-trifluoromethyl-phenyl)-[1,3,5]triazine-2,4-diamine] |
| ≤ 1000 | CCCN(C)c1nc(Nc2ccc(C(F)(F)F)cc2)nc(N2CCN(c3ncccc3Cl)C[C@H]2C)n1 [Compound 30, 6-[4-(3-Chloro-pyridin-2-yl)-2-methyl-piperazin-1-yl]-N-methyl-N-propyl-N′-(4-trifluoromethyl-phenyl)-[1,3,5]triazine-2,4-diamine (R)] |
| ≤ 1000 | Cc1nc(Nc2ccc(C(F)(F)F)cc2)nc(N2CCN(c3ncccc3Cl)CC2)n1 [Compound 82, {4-[4-(3-Chloro-pyridin-2-yl)-piperazin-1-yl]-6-methyl-[1,3,5]triazin-2-yl}-(4-trifluoromethyl-phenyl)-amine] |
| ≤ 1000 | COCc1nc(Nc2ccc(F)c(F)c2)cc(N2CCN(c3ncccc3C(F)(F)F)CC2)n1 [Compound 109, (3,4-Difluoro-phenyl)-{2-methoxymethyl-6-[4-(3-trifluoromethyl-pyridin-2-yl)-piperazin-1-yl]-pyrimidin-4-yl}-amine] |
| ≤ 1000 | C[C@@H]1CN(Cc2nc(Nc3ccc(F)c(F)c3)cc(N3CCN(c4ncccc4C(F)(F)F)CC3)n2)C[C@H](C)O1 [Compound 113, (3,4-Difluoro-phenyl)-{2-(2,6-dimethyl-morpholin-4-ylmethyl)-6-[4-(3-trifluoromethyl-pyridin-2-yl)-piperazin-1-yl]-pyrimidin-4-yl}-amine] |
| ≤ 1000 | C[C@@H]1CN(c2ncccc2Cl)CCN1c1cc(Nc2ccc(C(C)(C)C)cc2)ncn1 [Compound 1, (4-tert-Butyl-phenyl)-{6-[4-(3-chloro-pyridin-2-yl)-2-methyl-piperazin-1-yl]-pyrimidin-4-yl}-amine (R)] |
| ≤ 1000 | C[C@@H]1CN(c2ncccc2Cl)CCN1c1nc(Nc2ccc(C(F)(F)F)cc2)nc(N(C)C)n1 [Compound 18, 6-[4-(3-Chloro-pyridin-2-yl)-2-methyl-piperazin-1-yl]-N,N-dimethyl-N′-(4-trifluoromethyl-phenyl)-[1,3,5]triazine-2,4-diamine (R)] |
| ≤ 1000 | C[C@H]1CN(c2ncccc2C(F)(F)F)CCN1c1nc(Nc2ccc(C(F)(F)F)cc2)nc(-c2ccccc2Cl)n1 [Compound 16, {4-(2-Chloro-phenyl)-6-[2-methyl-4-(3-trifluoromethyl-pyridin-2-yl)-piperazin-1-yl]-[1,3,5]triazin-2-yl}-(4-trifluoromethyl-phenyl)-amine (S)] |
| ≤ 1000 | Fc1cccc(Nc2nc(N3CCOCC3)nc(N3CCN(c4ncccc4Cl)CC3)n2)c1 [Compound 60, {4-[4-(3-Chloro-pyridin-2-yl)-piperazin-1-yl]-6-morpholin-4-yl-[1,3,5]triazin-2-yl}-(3-fluoro-phenyl)-amine] |
| ≤ 1000 | CCCCN(C)c1nc(Nc2ccc(C(F)(F)F)cc2)nc(N2CCN(c3ncccc3Cl)C[C@H]2C)n1 [Compound 31, N-Butyl-6-[4-(3-chloro-pyridin-2-yl)-2-methyl-piperazin-1-yl]-N-methyl-N′-(4-trifluoromethyl-phenyl)-[1,3,5]triazine-2,4-diamine (R)] |
| ≤ 1000 | FC(F)(F)c1cccnc1N1CCN(c2cc(N3CCOCC3)nc(Nc3cccc(Cl)c3)n2)CC1 [Compound 84, (3-Chloro-phenyl)-{4-morpholin-4-yl-6-[4-(3-trifluoromethyl-pyridin-2-yl)-piperazin-1-yl]-pyrimidin-2-yl}-amine] |
| ≤ 1000 | C[C@H]1CN(c2ncccc2C(F)(F)F)CCN1c1nc(Cl)nc(Nc2ccc(C(F)(F)F)cc2)n1 [Compound 13, {4-Chloro-6-[2-methyl-4-(3-trifluoromethyl-pyridin-2-yl)-piperazin-1-yl]-[1,3,5]triazin-2-yl}-(4-trifluoromethyl-phenyl)-amine (S)] |
| ≤ 1000 | C[C@@H]1CN(c2ncccc2Cl)CCN1c1nc(NCCCc2ccccc2)nc(Nc2ccc(C(F)(F)F)cc2)n1 [Compound 41, 6-[4-(3-Chloro-pyridin-2-yl)-2-methyl-piperazin-1-yl]-N-(3-phenyl-propyl)-N′-(4-trifluoromethyl-phenyl)-[1,3,5]triazine-2,4-diamine (R)] |
| ≤ 1000 | CC(C)N(C)c1nc(Nc2ccccc2)nc(N2CCN(c3ncccc3Cl)CC2)n1 [Compound 54, 6-[4-(3-Chloro-pyridin-2-yl)-piperazin-1-yl]-N-isopropyl-N-methyl-N′-phenyl-[1,3,5]triazine-2,4-diamine] |
| ≤ 1000 | CCN(C)c1nc(Nc2cccc(F)c2)nc(N2CCN(c3ncccc3Cl)CC2)n1 [Compound 72, 6-[4-(3-Chloro-pyridin-2-yl)-piperazin-1-yl]-N-ethyl-N′-(3-fluoro-phenyl)-N-methyl-[1,3,5]triazine-2,4-diamine] |

— US20070043049A1, “Substituted heterocyclic diarylamine analogues” (Neurogen Corporation, priority 2003, published 2007)
